Measurements from PMC10672241, “New Cyclopiane Diterpenes and Polyketide Derivatives from Marine Sediment-Derived Fungus Penicillium antarcticum KMM 4670 and Their Biological Activities” (Marine Drugs, 2023).
Like-named read-outs stand apart in the source and are kept apart here.

Experiments:
sortase A from S. aureus = target: T1, sortase A from S. aureus (Staphylococcus aureus, UniProt Q2FV99); assay: Sortase A activity inhibition assay (SensoLyte 520 kit, cell-free); type: biochemical; details: for inhibition at 50 µM: read-out: inhibition of sortase A activity, 50 µM, after 10 min of incubation; for inhibition of sortase A activity: 50 µM, after 10 min of incubation
T1 construct: purchased AnaSpec AS-72229
Protocol: The enzymatic activity of sortase A from S. aureus was determined using SensoLyte 520 Sortase A Activity Assay Kit Fluorimetric (AnaSpec AS-72229, AnaSpec, San Jose, CA, USA) in accordance with the manufacturer’s instructions. […] DMSO at a concentration of 0.8% was used as a control. 4-(Hydroxymercuri)benzoic acid (PCMB) was used as sortase A enzyme activity inhibitor. Fluorescence was measured with a plate reader PHERAStar FS (BMG Labtech, Offenburg, Germany) for 60 min, with a time interval of 5 min. The data were processed with MARS Data Analysis v. 3.01R2 (BMG Labtech, Offenburg, Germany). The results were presented as relative fluorescent units (RFUs) and percentage of the control data, calculated using STATISTICA 10.0 software.

H9c2 cardiomyocytes = assay: H9c2 cell viability (MTT) assay; type: cell-based, rat; details: for Cell Viability: 24 h, MTT; for toxicity toward normal cardiomyocytes: at the concentrations in which they affected the growth of microorganisms
Protocol: (§1) The rat cardiomyocytes H9c2 cells were kindly provided by Prof. Dr. Gunhild von Amsberg from Martini-Klinik Prostate Cancer Center, University Hospital Hamburg-Eppendorf, Hamburg, Germany.
(§2) The H9c2 cells were cultured in DMEM medium (Biolot, St. Petersburg, Russia) containing 10% fetal bovine serum (Biolot, St. Petersburg, Russia) and 1% penicillin/streptomycin (Biolot, St. Petersburg, Russia) at 37 °C in a humidified atmosphere with 5% (v/v) CO2.
(§3) The H9c2 cells were seeded at concentrations of 3 × 10^3 cell/well, and the experiments were started after 24 h. The compounds at concentrations up to 100 µM were added into the wells for 24 h, and the viability of the cells was measured with an MTT (3-(4,5-dimethylthiazol-2-yl)-2,5-diphenyltetrazolium bromide) assay, which was performed according to the manufacturer’s instructions (Sigma-Aldrich, Munich, Germany). All compounds were dissolved with DMSO so that the final concentration of DMSO in the cell culture was not more than 1%. Moreover, DMSO was used as a control. The results were presented as a percent of the control data and calculated IC50.

[1] = H9c2 cell viability (MTT) assay; type: cell-based, rat; details: rat, H9c2 cardiomyocytes, 24 h, MTT
Protocol: as §1, §2, §3

[2] = tested on: Escherichia coli VKPM (B-7935); assay: Antimicrobial activity: E. coli growth (OD620, 96-well broth); type: cell-based
Protocol: (§4) The yeast-like fungi of Candida albicans KMM 455 and bacterial strains Staphylococcus aureus ATCC 21027 and Escherichia coli VKPM (B-7935) (Collection of Marine Microorganisms PIBOC FEB RAS) were cultured on solid medium Mueller Hinton broth with agar (16.0 g/L) in a Petri dish at 37 °C for 24 h.
(§5) The assays were performed in 96-well microplates in appropriate Mueller Hinton broth. Each well contained 90 µL of bacterial or of yeast-like fungi suspension (10^9 CFU/mL). Then, 10 µL of a compound diluted at concentrations from 1.5 µM to 100.0 µM using two-fold dilution were added (DMSO concentration <1%). Culture plates were incubated for 18 h at 37 °C, and the OD620 was measured using a Multiskan FS spectrophotometer (Thermo Scientific Inc., Beverly, MA, USA). The antibiotic gentamicin and the antifungal agent nitrofungin were used as positive controls at 1 mg/mL; 1% DMSO in PBS served as a negative control.

[3] = tested on: Staphylococcus aureus ATCC 21027; assay: Antimicrobial activity: S. aureus growth (OD620, 96-well broth); type: cell-based; details: for inhibition at 12.5 µM / inhibition at 100 µM: Staphylococcus aureus; for inhibition at 12.5 µM: ATCC21027, 12.5 µM; for inhibition at 100 µM: ATCC21027, 100 µM
Protocol: as §4, §5

Candida albicans KMM 455 = assay: Antimicrobial activity: C. albicans growth (OD620, 96-well broth); type: cell-based; details: for inhibition at 12.5 µM: KMM455, 12.5 µM
Protocol: as §4, §5

[4] = tested on: S. aureus biofilm formation; assay: Crystal violet biofilm formation assay, S. aureus; type: cell-based, Staphylococcus aureus; details: for IC50: Staphylococcus aureus, read-out: half-maximal concentration (IC50) of the biofilm formation inhibition; for prevention of the biofilm formation of S. aureus: concentration not given
Protocol: (§6) The inhibition reducing biofilm formation and growth was assessed using the crystal violet biofilm assay as described. Overnight cultures of bacteria S. aureus and E. coli and yeast-like fungi C. albicans were inoculated into Mueller–Hinton broth at a concentration of 10^9 CFU/mL. A total of 90µL of this cell suspension was then dispensed into 96-well microtiter plates containing 10 µL of different concentrations of compounds 1–6. After 24 h growth at 37 °C, the plates were washed with PBS to remove unbound cells. Next, the wells were stained with 0.1% crystal violet solution for 10 min at 37 °C. At the completion of the incubation, plates were washed 3 times with PBS and dried. Then, the crystal violet dye from the biofilm was solubilized with 100 µL of ethanol. A total of 100 µL of this solution was then moved to a new microtiter plate for absorbance measurement at λ = 570 nm. The results were reported as percent inhibition normalized to the wild-type control.

Escherichia coli [5] = assay: Literature antibacterial activity against Escherichia coli; type: cell-based; details: calculated from 50 μg/mL
Staphylococcus aureus [6] = tested on: Staphylococcus aureus; set-up: method as in PMID 31226283; details: bacterial suspension 10^6 CFU per milliliter; cited from earlier work
Escherichia coli [7] = tested on: Escherichia coli; set-up: method as in PMID 31226283; details: bacterial suspension 10^6 CFU per milliliter; cited from earlier work
Staphylococcus aureus [8] = assay: Literature antibacterial activity against Staphylococcus aureus; type: cell-based; details: calculated from 100 μg/mL
[9] = tested on: E. coli biofilm formation; assay: Crystal violet biofilm formation assay, E. coli; type: cell-based, Escherichia coli
Protocol: as §6

[10] = tested on: C. albicans biofilm formation; assay: Crystal violet biofilm formation assay, C. albicans; type: cell-based, Candida albicans; details: for inhibition of C. albicans biofilm formation: concentrations from 12.5 to 100 µM
Protocol: as §6

[11] = in vivo assay; cited from earlier work
[12] = concentrations from 12.5 to 100 µM

T1 sequence (Q2FV99 whole entry): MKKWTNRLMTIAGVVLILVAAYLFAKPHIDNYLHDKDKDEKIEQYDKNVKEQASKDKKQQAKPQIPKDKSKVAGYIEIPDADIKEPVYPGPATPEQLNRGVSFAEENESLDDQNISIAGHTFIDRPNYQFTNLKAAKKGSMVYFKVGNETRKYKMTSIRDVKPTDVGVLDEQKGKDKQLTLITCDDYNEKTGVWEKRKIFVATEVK

Compound	inhibition at 50 µM (sortase A from S. aureus) [%]	viability at 24 h, 1 µM [1] [%]	viability at 24 h, 10 µM [1] [%]	viability at 24 h, 100 µM [1] [%]	inhibition at 100 µM ([2]; Escherichia coli, 100 µM) [%]	inhibition at 12.5 µM [3] [%]	inhibition at 100 µM [3] [%]	prevention of S. aureus biofilm formation ([4]; 100 µM) [%]	inhibition of S. aureus growth ([3]; 12.5 µM)	inhibition at 12.5 µM ([2]; Escherichia coli, 12.5 µM) [%]	inhibition of C. albicans growth (Candida albicans KMM 455; [12])	inhibition of C. albicans biofilm formation [10]	also measured
CC12CC(=O)C(C)(C)C1C1CCC3(C)C(=O)C=CC(C)(O)C13C2 (stereo not shown) [Compound 1, 4-hydroxyleptosphin C]	28.2	94.8 ± 5.9	65.7 ± 9.4	63.2 ± 0.5	35.9	15.3	29.3	34.5	–	–	–	–	decrease in H9c2 cell viability (H9c2 cardiomyocytes; 10 µM): ~30%; decrease of H9c2 viability (H9c2 cardiomyocytes; 100 µM): ~30%; inhibition of E. coli growth ([2]; 12.5 µM): not observed; inhibition at 12.5 µM (Candida albicans KMM 455; Candida albicans): 30.4%; prevention of S. aureus biofilm formation ([4]; 12.5 µM): 15.9%
CC1C=CC(=O)C2(C)CCC3C4C(C)(CC(O)C4(C)C)CC132 (stereo not drawn) [Compound 2, 13-epi-conidiogenone F]	–	98.1 ± 1.9	107 ± 7.8	–	27.3	–	19.1	52.6	no effect	–	–	–	inhibition of sortase A activity (sortase A from S. aureus): 36.9%; decrease of H9c2 viability (H9c2 cardiomyocytes; 100 µM): ~30%; Cell Viability (H9c2 cardiomyocytes; 100 µM): 67.3 ± 3.1%; inhibition of E. coli growth ([2]; 12.5 µM): not observed; inhibition at 12.5 µM (Candida albicans KMM 455; Candida albicans): 27.9%; prevention of S. aureus biofilm formation ([4]; 12.5 µM): 37.9%; IC50 [4]: 76.1 µM
CC1C=CC(=O)C2(C)CCC3C4C(C)(CC(O)C4(C)C)CC132 (stereo not shown) [Compound 3, conidiogenone F]	–	–	–	–	–	–	–	–	did not influence	24.3	–	–	concentration at which activity was recorded (E. coli) (Escherichia coli [5]): 166 µM; inhibition of sortase A activity (sortase A from S. aureus): 13.1%; Cell Viability (H9c2 cardiomyocytes; 1 µM): 103.3 ± 3.2%; Cell Viability (H9c2 cardiomyocytes; 10 µM): 92.9 ± 2.5%; Cell Viability (H9c2 cardiomyocytes; 100 µM): 109.7 ± 9.2%; inhibition of E. coli growth ([2]; 100 µM): 36.4%; concentration of antibacterial activity against Staphylococcus aureus (Staphylococcus aureus [6]): > 100 µg/mL; concentration of antibacterial activity against Escherichia coli (Escherichia coli [7]): 50 µg/mL; inhibition of S. aureus growth ([3]; 100 µM): 17.6%; inhibition of C. albicans growth (Candida albicans KMM 455; 12.5 µM): 26.5%; prevention of S. aureus biofilm formation ([4]; only at concentrations of 50 µM and 100 µM): 10–15%
CC1C=CC(=O)C2(C)CCC3C4C(C)(CC(=O)C4(C)C)CC132 (stereo not shown) [Compound 4, leptosphin C]	20	107 ± 2.9	102 ± 4.6	92.3 ± 1.9	41.7	10.3	42.4	54.5	–	7.2	38.7–44.8%	30.6–36.4%	concentration at which activity was recorded (S. aureus) (Staphylococcus aureus [8]): 333 µM; concentration of antibacterial activity against Staphylococcus aureus (Staphylococcus aureus [6]): 100 µg/mL; concentration of antibacterial activity against Escherichia coli (Escherichia coli [7]): > 100 µg/mL; effect on biofilm formation of E. coli (in words) [9]: affect the biofilm formation; prevention of E. coli biofilm formation ([9]; concentrations of 25–100 µM): 30–40%; effect on biofilm formation by C. albicans (in words) [10]: affected the biofilm formation; IC50 ([4]; S. aureus biofilm): 85.5 µM
C[C@H]1CCC[C@H](C[C@@H](O)CC(=O)O)O1 [Compound 5, antaketide A]	25.5	94.4 ± 3.1	88.5 ± 3.1	74.1 ± 4.9	40.9	–	48.5	–	did not show any influence	12.5	36.2–48.4%	did not affect	toxicity toward normal cardiomyocytes (H9c2 cardiomyocytes): significant toxicity; effect on biofilm formation of E. coli (in words) [9]: affect the biofilm formation; prevention of E. coli biofilm formation ([9]; concentrations of 12.5–100 µM, respectively): 21–45%; prevention of the biofilm formation of S. aureus [4]: 30–40%
C[C@H]1CCC[C@H](CC(=O)O)O1 [Compound 6, 2-((2R,6S)-6-methyltetrahydro-2H-pyran-2-yl)acetic acid]	16.8	98.1 ± 1.6	80.9 ± 2.9	54.6 ± 2.1	56.9	25.6	46.5	–	–	27.7	34.7-52.1%	14.7–23.1%	toxicity toward normal cardiomyocytes (H9c2 cardiomyocytes): significant toxicity; IC50 ([2]; Escherichia coli, read-out: IC50 of E. coli growth inhibition): 84.9 µM; IC50 (Candida albicans KMM 455; Candida albicans, KMM455): 89.9 µM; effect on biofilm formation by C. albicans (in words) [10]: affected the biofilm formation; prevention of the biofilm formation of S. aureus [4]: 30–40%
C[C@H]1CCC[C@H](C[C@H]2Cc3cc(O)cc(O)c3C(=O)O2)O1 [Compound 7, cladosporin]	–	–	–	–	–	–	–	–	–	–	–	–	clearance rate in the body [11]: high; oral bioavailability [11]: poor
